Data on eight molecules can be found in patent publication US20230055705A1, “SUBSTITUTED THIOPHENE CARBOXAMIDES AND DERIVATIVES THEREOF” (Bayer Aktiengesellschaft, priority 2019, published 2023).

For data set [1], the system named is Xanthomonas campestris pv. campestris. Kind of data set: Xanthomonas campestris pv. campestris in vitro cell test. Conditions: 20 ppm of active ingredient, 24 h incubation, read-out: efficacy (inhibition of bacteria growth). In kind it is cell-based. Here is the method:
• Solvent: DMSO • Culture medium: LB broth medium (Luria Broth Miller) Sigma • Inoculum: bacteria suspension
Compounds were solubilized in DMSO and the solution used to prepare the required range of concentrations. The final concentration of DMSO used in the assay was ≤1%.
(§1) Inoculum was prepared from a pre-culture of bacteria grown in liquid medium and diluted to the desired optical density (OD).
(§2) Compounds were evaluated for their ability to inhibit bacteria growth in liquid culture assay. The compounds were added in the desired concentrations to culture medium containing the bacteria suspension. After 24 h of incubation, the efficacy of compounds was determined by spectrometric measurement of bacteria growth. Inhibition was determined by comparing the absorbance values in wells containing the compounds with the absorbance in control wells without active ingredients.

A further data set relates to Peronospora parasitica. Kind of data set: In vivo preventive test on Peronospora parasitica (Crucifer downy mildew). The note with it: Hyaloperonospora parasitica, in Brassica oleracea, 120 h, cabbage, evaluated 5 days after inoculation, read-out: efficacy; for pest or weed control at 31 ppm: 31 ppm of active ingredient; for pest or weed control at 125 ppm: 125 ppm of active ingredient; for pest or weed control at 500 ppm: 500 ppm of active ingredient. In outline:
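Young cabbage plants were sprayed with compound in acetone/DMSO/Tween diluted with water, then inoculated 72 h later with a Peronospora parasitica spore suspension. Plants were kept 5 days at 20 °C and 100% RH. Efficacy was scored with 0% equal to solvent-treated controls and 100% meaning no disease.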

Data set [2] is described as follows: LogP by HPLC on reversed phase columns (EEC directive 79/831 Annex V.A8). In kind it is physicochemical. The note with it: reversed phase HPLC columns. In outline: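 Reversed-phase HPLC per EEC directive 79/831 Annex V.A8. Calibrated with straight-chain alkan-2-ones (C3–C16) of known LogP, LogP from retention times by linear interpolation between successive alkanones. Lambda-max taken from UV spectra (200–400 nm) at chromatographic peak maxima.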

For data set [3], the system named is Colletotrichum lindemuthianum. Kind of data set: Colletotrichum lindemuthianum in vitro cell test. In kind it is cell-based. Conditions: 144 h, 20 ppm of active ingredient, 6 days incubation, read-out: efficacy (inhibition of fungal growth). Here is the method:
(§3) • Solvent: DMSO • Culture medium: 14.6 g anhydrous D-glucose (VWR), 7.1 g Mycological Peptone (Oxoid), 1.4 g granulated Yeast Extract (Merck), QSP 1 liter • Inoculum: spores suspension
(§4) Fungicides were solubilized in DMSO and the solution used to prepare the required range of concentrations. The final concentration of DMSO used in the assay was ≤[…]1%.
A spore suspension of C. lindemuthianum was prepared and diluted to the desired spore density.
Fungicides were evaluated for their ability to inhibit spores germination and mycelium growth in liquid culture assay. The compounds were added in the desired concentration to the culture medium with spores. After 6 days incubation, fungi-toxicity of compounds was determined by spectrometric measurement of mycelium growth. Inhibition of fungal growth was determined by comparing the absorbance values in wells containing the fungicides with the absorbance in control wells without fungicides.

The subject of data set [4] is Pseudomonas syringae pv. tomato. Kind of data set: Pseudomonas syringae pv. tomato in vitro cell test. The note with it: 20 ppm of active ingredient, 24 h incubation, read-out: efficacy (inhibition of bacteria growth). In kind it is cell-based. Here is the method:
Culture medium: LB broth medium (Luria Broth Miller) Sigma
Inoculum: bacteria suspension
Compounds were solubilized in DMSO and the solution used to prepare the required range of concentrations. The final concentration of DMSO used in the assay was 1%.
as §1, §2

The next data set has as its system Alternaria alternata. Kind of data set: Alternaria alternata in vitro cell test. It is filed as cell-based. Conditions: 120 h, 20 ppm of active ingredient, 5 days incubation, read-out: efficacy (inhibition of fungal growth). Here is the method: as §3, §4
A spore suspension of A. alternata was prepared and diluted to the desired spore density.
Fungicides were evaluated for their ability to inhibit spore germination and mycelium growth in liquid culture assay. The compounds were added in the desired concentration to the culture medium with spores. After 5 days incubation, fungi-toxicity of compounds was determined by spectrometric measurement of mycelium growth. Inhibition of fungal growth was determined by comparing the absorbance values in wells containing the fungicides with the absorbance in control wells without fungicides.

Data set [5] concerns salicylate responsive promoter sequence of the PR1 (pathogenesis-related protein I) gene (AT2G14610). Kind of data set: Induction of defense gene expression in Arabidopsis thaliana (PR1 promoter-GFP reporter plants). In kind it is in vivo. The note with it: Arabidopsis thaliana, 72 h, 3rd day after spraying, mock treated leaves set as 1.00, read-out: relative fluorescence value; for fold induction at 75 ppm: 75 ppm of compound. The procedure, abridged: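 Transgenic A. thaliana carrying GFP under the salicylate-responsive PR1 promoter, grown five days, then sprayed with compounds. Whole-plant fluorescence imaged and quantified on day 3 post-spray, expressed relative to mock-treated leaf background set at 1.00.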

Another data set has as its system Uromyces appendiculatus. Kind of data set: In vivo preventive test on Uromyces appendiculatus (bean rust). Conditions: 240 h, evaluated 10 days after inoculation, read-out: efficacy; for pest or weed control at 125 ppm: 125 ppm of active ingredient; for pest or weed control at 500 ppm: 500 ppm of active ingredient. In outline:
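Young bean plants sprayed with compound in acetone/DMSO/Tween diluted in water, inoculated 72 h later with U. appendiculatus spore suspension. Held 24 h at 20 °C, 100% RH, then 9 days at 20 °C, 70-80% RH. Efficacy scored 10 days post-inoculation versus solvent-treated controls (0% = control, 100% = no disease).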

Data set [6] deals with Colletotrichum lindemuthianum. Kind of data set: In vivo preventive test on Colletotrichum lindemuthianum (Antrachnose on bean). Conditions: 144 h, inoculation 72 h after spraying, evaluated 6 days after inoculation, read-out: efficacy; for pest or weed control at 31 ppm: 31 ppm of active ingredient. In outline:
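Young bean plants sprayed preventively with compound in acetone/DMSO/Tween diluted in water, then spore-inoculated 72 h later. Incubation 24 h at 20° C./100% RH, then 5 days at 20° C./90% RH; scored 6 days post-inoculation as % efficacy (0% = solvent-treated control, 100% = no disease).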

The test system of data set [7] is Pseudomonas syringae pv. tomato. Kind of data set: In vivo preventive test on Pseudomonas syringae pv. tomato (bacterial speck on tomato). Conditions: 31 ppm of active ingredient, evaluated 5 or 6 days after inoculation, read-out: efficacy. The procedure, abridged: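 Young tomato plants sprayed with compound in acetone/DMSO/Tween diluted in water; solvent-only controls. Inoculated 72 h later by spraying leaves with bacterial suspension; 4 days saturated atmosphere then 1–2 days at 70–80% RH, 22 °C day/20 °C night. Efficacy scored 5–6 days post-inoculation, 0% = control, 100% = no disease.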

Data set [8] has as its system Xanthomonas campestris pv. campestris. Kind of data set: In vivo preventive test on Xanthomonas campestris pv. campestris (black rot on cabbage). The note with it: evaluated 8 or 10 days after inoculation, read-out: efficacy; for pest or weed control at 31 ppm: 31 ppm of active ingredient; for pest or weed control at 125 ppm: 125 ppm of active ingredient. The procedure, abridged:
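Young cabbage plants sprayed with compound in acetone/DMSO/Tween diluted in water; solvent-only controls. Leaves sprayed with bacterial suspension 72 h later, then held 8 or 10 days at 27° C and 95% relative humidity. Efficacy scored 8 or 10 days post-inoculation, 0% matching controls, 100% meaning no disease.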

[9] abbreviates: given in the preparation examples, method not marked.
Setting [10] is: method [a]: LC-UV, in an acidic range, with 0.1% formic acid in water and acetonitrile as eluent (linear gradient from 10% to 95% acetonitrile).
Where [11] appears, read: method [a]: LC-UV, acidic range, 0.1% formic acid in water and acetonitrile as eluent (linear gradient 10% to 95% acetonitrile).

A value given as a limit tells only on which side of the number the result lay.

The term inhibition denotes the drop in the measured response relative to a control, in per cent. Broadly, the chromatographic logP is a lipophilicity value derived from retention on a column. High values mean a more lipophilic compound, low ones a more hydrophilic compound. Take `CCSC(=O)C1(NC(=O)c2sc(Cl)c(Cl)c2Cl)CC1` [I.011, S-ethyl 1-{[(3,4,5-trichloro-2-thienyl)carbonyl]amino}cyclopropanecarbothioate]: the inhibition at 20 ppm (in [1]; in data set [3]; in data set [4]; with Alternaria alternata) was no more than 30% each time. Besides, the pest or weed control at 31 ppm in the data set with Peronospora parasitica fell in the range of 90 to 100%. Further, the pest or weed control at 125 ppm in the data set on Peronospora parasitica was 90 to 100%. For the same molecule, the pest or weed control at 500 ppm in the data set with Peronospora parasitica fell in the range of 90 to 100%. The chromatographic logP in [2] (setting [9]) and in data set [2] (setting [10]) was 4.01 throughout. In data set [5], the fold induction at 75 ppm was greater than 2. In addition, in [5], the fold induction at 300 ppm was greater than 2.

In the case of `CC(C)[C@H](NC(=O)c1sc(Cl)c(Cl)c1Cl)C(N)=O` [I.147], the inhibition at 20 ppm (in data set [1]; in data set [3]; in data set [4]; in the data set on Alternaria alternata) was no more than 30% each time. In addition, the pest or weed control at 125 ppm in the data set on Peronospora parasitica and in the data set with Uromyces appendiculatus was 90 to 100% in each case. In addition, the pest or weed control at 500 ppm in the data set on Peronospora parasitica and in the data set with Uromyces appendiculatus was 90 to 100% throughout. The molecule further had a chromatographic logP in [2] (setting [11]) of 2.67. The pest or weed control at 8 ppm in the data set on Uromyces appendiculatus (8 ppm) was no less than 90%.

As for `NC(=O)CNC(=O)c1sc(Cl)c(Cl)c1Cl` [I.066, N-(2-amino-2-oxoethyl)-3,4,5-trichlorothiophene-2-carboxamide], the inhibition at 20 ppm (in data set [1]; in [3]; in [4]; in the data set with Alternaria alternata) was no more than 30% each time. The pest or weed control at 31 ppm lay in the range of 90 to 100% in the data set with Peronospora parasitica, 70 to 79% in data set [6] and 80 to 89% in [7]. The pest or weed control at 125 ppm in the data set on Peronospora parasitica and in the data set with Uromyces appendiculatus was 90 to 100% in each case. Also, the chromatographic logP in [2] (setting [9]) and in data set [2] (setting [10]) was 1.89 in each case. In data set [5], the fold induction at 75 ppm is greater than 2. For the same molecule, the fold induction at 300 ppm in data set [5] is greater than 2.

For `CCOC(=O)CC[C@H](NC(=O)c1sc(Cl)c(Cl)c1Cl)C(=O)OCC` [I.137], the inhibition at 20 ppm (in data set [1]; in [3]; in data set [4]; in the data set on Alternaria alternata) was no more than 30% in each case. The pest or weed control at 31 ppm was in the range of 90 to 100% in the data set with Peronospora parasitica, 80 to 89% in [6] and 80 to 89% in [8]. Moreover, the pest or weed control at 125 ppm with Peronospora parasitica and with Uromyces appendiculatus was 90 to 100% throughout. This molecule showed a chromatographic logP in [2] (setting [11]) of 4.21. Moreover, in data set [5], the fold induction at 75 ppm is greater than 2. For the same molecule, the fold induction at 300 ppm in [5] was greater than 2.

As for `COC(=O)C(NC(=O)c1sc(Cl)c(Cl)c1Cl)C(=O)OC` [I.007], the inhibition at 20 ppm (in [1]; in [3]; in [4]; in the data set with Alternaria alternata) was no more than 30% in each case. Moreover, the pest or weed control at 31 ppm with Peronospora parasitica lay in the range of 90 to 100%; in data set [7] it was 80 to 89%. The pest or weed control at 125 ppm in the data set on Peronospora parasitica and in the data set with Uromyces appendiculatus was 90 to 100% in each case. In addition, the chromatographic logP in data set [2] (setting [10]) was determined as 3.31. Further, the fold induction at 75 ppm in data set [5] is greater than 2. In [5], the fold induction at 300 ppm is greater than 2.

Turning to `CCOC(=O)C(NC(=O)c1sc(Cl)c(Cl)c1Cl)c1ccccc1` (stereo not drawn) [I.064], the inhibition at 20 ppm (in data set [1]; in [3]; in [4]; in the data set with Alternaria alternata) was no more than 30% each time. Also, in the data set on Peronospora parasitica, the pest or weed control at 31 ppm lay in the range of 80 to 89%. Also, the pest or weed control at 125 ppm with Peronospora parasitica was in the range of 90 to 100%; in data set [8], 70 to 79%. Further, the pest or weed control at 500 ppm in the data set on Peronospora parasitica was 90 to 100%; in data set [6] (500 ppm of active ingredient), 80 to 89%; in the data set on Uromyces appendiculatus it was 90 to 100%. In addition, the chromatographic logP in data set [2] (setting [10]) came out at 4.89. For the same molecule, the fold induction at 300 ppm in [5] is greater than 2.

Regarding `COC(=O)CC[C@H](NC(=O)c1sc(Cl)c(Cl)c1Cl)C(=O)OC` [I.139], the inhibition at 20 ppm (in data set [1]; in [3]; in data set [4]; with Alternaria alternata) was no more than 30% each time. The pest or weed control at 31 ppm in the data set on Peronospora parasitica fell in the range of 90 to 100%; in [6], 70 to 79%; in data set [7], 80 to 89%. In addition, the pest or weed control at 125 ppm in the data set on Peronospora parasitica and in the data set with Uromyces appendiculatus was 90 to 100% throughout. Besides, the chromatographic logP in data set [2] (setting [11]) was found to be 3.36. Besides, the fold induction at 75 ppm in data set [5] is greater than 2. For the same molecule, the fold induction at 300 ppm in data set [5] was greater than 2.

Regarding `CCOC(=O)C(CSC(C)=O)NC(=O)c1sc(Cl)c(Cl)c1Cl` (stereo not drawn) [I.145], the inhibition at 20 ppm (in [1]; in [4]; with Alternaria alternata) was no more than 30% each time. For the same molecule, the values for the pest or weed control at 31 ppm (in the data set on Peronospora parasitica; in [8]; in data set [7]) were 90 to 100%, 90 to 100% and 80 to 89%, respectively. For the same molecule, the pest or weed control at 125 ppm (in the data set on Peronospora parasitica; in data set [8]; in the data set with Uromyces appendiculatus) was 90 to 100% throughout. In [2] (setting [11]), this molecule displayed a chromatographic logP of 3.41. For the same molecule, the fold induction at 75 ppm in data set [5] was greater than 2. In data set [5], the fold induction at 300 ppm is greater than 2.
